# Reference: patent US20240382465A1, “AROMATIC ACETYLENE DERIVATIVE, AND PREPARATION METHOD THEREFOR AND USE THEREOF” (priority 2021, published 2024)
# System: E. coli ATCC 25922
# Assay: Antibacterial activity, MIC by broth microdilution (CLSI)
# Type: cell-based
# Conditions: Escherichia coli, ATCC25922; E. coli ATCC 25922, 35° C., 18 to 24 hours; read-out: MIC(E. coli)
# Method: The in vitro minimum inhibitory concentration (MIC) was determined in accordance with the CLSI guidelines, and was measured using the broth microdilution method.
# The experimental process is briefly described as follows: The test compound was dissolved in DMSO to prepare a […] stock solution, which was then prepared into 11 twice-diluted 100× high-concentration working solutions (the final concentration of the system was 64 μg/mL-0.06 μg/mL) using DMSO. The strains (K. pneumoniae ATCC13883 and E. coli ATCC 25922) frozen in −80° C. glycerol were inoculated into solid agar medium, placed in an incubator at 35° C. for 18-24 hours of incubation. After the preparation of strains was completed, an appropriate amount of solid plate culture was collected, resuspended in physiological saline, and mixed well. The bacterial suspension was adjusted to a suitable turbidity using a turbidity meter, containing approximately 1×10^8 cfu/mL bacteria. Then the bacterial suspension with the adjusted turbidity was diluted to a bacterial concentration of 5×10^5 cfu/ml using the culture medium for measurement, to complete the preparation of the inoculum solution. 198 μL of the inoculum solution was inoculated into a 96-well plate, and then added with 2 μL of a 100× high-concentration working solution of the compound. Then the 96-well plate was placed at 35° C. for 18 to 24 hours of incubation.
row,SMILES,MIC [µg/mL]
1,"C[C@H](O)c1nccn1Cc1cc(-c2ccc(C#Cc3ccc(C(=O)NCC(C)(C)O)cc3)cc2)on1 [Example 72, (S)-N-(2-hydroxy-2-methyl-propyl)-4-((4-(3-((2-(1-hydroxyethyl)-1H-imidazol-1-yl)methyl)isoxazol-5-yl)phenyl)ethynyl) benzamide]",8
2,"C[C@H](O)c1nccn1Cc1cc(-c2ccc(C#Cc3ccc(CN4CCNCC4)cc3)cc2)on1 [Example 96, (S)-1-(1-((5-(4-((4-(piperazin-1-ylmethyl)phenyl)ethynyl)phenyl)isoxazol-3-yl)methyl)-1H-imidazol-2-yl)ethan-1-ol]",4
3,"C[C@H](O)c1nccn1Cc1cc(-c2ccc(C#Cc3ccc(C(=O)N4CCC(C(=O)O)CC4)cc3)cc2)on1 [Example 69, (S)-1-(4-((4-(3-((2-(1-hydroxyethyl)-1H-imidazol-1-yl)methyl)isoxazol-5-yl)phenyl)ethynyl)benzoyl)piperidin-4-carboxylic acid]",8

# Molecular target: recombinant Pseudomonas aeruginosa LpxC (Pseudomonas aeruginosa (strain ATCC 15692 / DSM 22644 / CIP 104116 / JCM 14847 / LMG 12228 / 1C / PRS 101 / PAO1), UniProt P47205)
# Assay: Inhibition of LpxC enzymatic activity (fluorescamine assay)
# Type: biochemical
# Conditions: recombinant P. aeruginosa LpxC 5 nM, substrate 10 μM, 25° C., 120 minutes; read-out: IC50
# Method: The degree of inhibition of the enzymatic activity of recombinant Pseudomonas aeruginosa LpxC by the compounds of the present disclosure under in vitro conditions was determined using the following method.
# The experimental procedure is briefly described as follows: The test compound was first dissolved in DMSO to prepare a 10 mM stock solution. The reaction was carried out in a 96-well microplate. First, 20 μL of recombinant Pseudomonas aeruginosa LpxC (purchased from Signalway Antibody, product number AP74647-2) was added to each well, with a final concentration of 5 nM. 5 μL of the compound to be tested was then added, and the compound was diluted 4 times to 8 concentration points with a concentration range of 0.61-10,000 nM. 5 μL of LpxC substrate UDP-3-O—(R-3-hydroxydecanoyl)-GlcNAc (purchased from Biosynth Carbosynth, product number: mu75071) was added, with a final concentration of the substrate of 10 μM. The plate was incubated at 25° C. for 120 minutes. Then 20 μL of 2.0 mg/mL fluorescamine (purchased from sigmaaldrich, product number: F9015, solvent: 1:1 dimethylformamide/acetonitrile) was added to the reaction system, and mixed well for 10 minutes of reaction. Finally, 50 μL of 200 mM sodium phosphate buffer (pH 8.0) was added to terminate the reaction. Reading was carried out using a microplate reader (BMG), and the excitation and emission wavelengths were 390 and 495 nm respectively. By comparing with the fluorescence intensity ratio of the control group ([…]), the percentage inhibition rate of the compound at each concentration was calculated.
row,SMILES,IC50 [nM]
1,"C[C@H](O)c1nccn1Cc1cc(-c2ccc(C#Cc3ccc(C(=O)NCC(C)(C)O)cc3)cc2)on1 [Example 72, (S)-N-(2-hydroxy-2-methyl-propyl)-4-((4-(3-((2-(1-hydroxyethyl)-1H-imidazol-1-yl)methyl)isoxazol-5-yl)phenyl)ethynyl) benzamide]",26.6
2,"C[C@H](O)c1nccn1Cc1cc(-c2ccc(C#Cc3ccc(CN4CCNCC4)cc3)cc2)on1 [Example 96, (S)-1-(1-((5-(4-((4-(piperazin-1-ylmethyl)phenyl)ethynyl)phenyl)isoxazol-3-yl)methyl)-1H-imidazol-2-yl)ethan-1-ol]",15.9
3,"C[C@H](O)c1nccn1Cc1cc(-c2ccc(C#Cc3ccc(CN4CCC(O)C(F)(F)C4)cc3)cc2)on1 (stereo partly drawn) [Example 97, 3,3-difluoro-1-(4-((4-(3-((2-((S)-1-hydroxyethyl)-1H-imidazol-1-yl)methyl)isoxazol-5-yl)phenyl)ethynyl)benzyl) piperidin-4-ol]",31.9
4,"C[C@H](O)c1nccn1Cc1cc(-c2ccc(C#Cc3ccc(CN4CC(C(=O)O)C4)nc3)cc2)on1 [Example 117, (S)-1-((5-((4-(3-((2-(1-hydroxyethyl)-1H-imidazol-1-yl)methyl)isoxazol-5-yl)phenyl)ethynyl)pyridin-2-yl)methyl)azetidin-3-carboxylic acid]",18.5
5,"C[C@H](O)c1nccn1Cc1cc(-c2ccc(C#Cc3ccc(C(=O)N4CCC(C(=O)O)CC4)cc3)cc2)on1 [Example 69, (S)-1-(4-((4-(3-((2-(1-hydroxyethyl)-1H-imidazol-1-yl)methyl)isoxazol-5-yl)phenyl)ethynyl)benzoyl)piperidin-4-carboxylic acid]",10.4
6,C[C@H](O)c1nccn1Cc1cc(-c2ccc(C#Cc3ccc(CNCC(=O)O)nc3)cc2)on1 [Example 116],47.9
7,"C[C@H](O)c1nccn1Cc1cc(-c2ccc(C#Cc3ccc(S(N)(=O)=O)cc3)cc2)on1 [Example 83, (S)-4-((4-(3-((2-(1-hydroxy-ethyl)-1H-imidazol-1-yl)methyl)isoxazol-5-yl)phenyl)ethynyl) benzenesulfonamide]",54.7
8,"C[C@H](O)c1nccn1Cc1cc(-c2ccc(C#Cc3ccccc3C(=O)O)cc2)on1 [Example 106, (S)-2-((4-(3-((2-(1-hydroxyethyl)-1H-imidazol-1-yl)methyl)isoxazol-5-yl)phenyl)ethynyl) benzoic acid]",68.9
9,"CC(=O)c1ccc(C#Cc2ccc(-c3cc(Cn4ccnc4[C@H](C)O)no3)cc2)cn1 [Example 103, (S)-1-(5-((4-(3-((2-(1-hydroxyethyl)-1H-imidazol-1-yl)methyl)isoxazol-5-yl)phenyl)ethynyl)pyridin-2-yl)ethan-1-one]",46.8
10,"C[C@H](O)c1nccn1Cc1cc(-c2ccc(C#Cc3ccc(Cn4ccnc4)cc3)cc2)on1 [Example 98, (S)-1-(1-((5-(4-((4-((1H-imida-zol-1-yl)methyl)phenyl)ethynyl)phenyl)isoxazol-3-yl)methyl)-1H-imidazol-2-yl)ethan-1-ol]",78.5
11,"C[C@H](O)c1nccn1Cc1cc(-c2ccc(C#Cc3ccc(OC4CCC(C(=O)O)CC4)cc3)cc2)on1 (stereo partly drawn) [Example 79, (S)-4-(4-((4-(3-((2-(1-hydroxyethyl)-1H-imidazol-1-yl)methyl)isoxazol-5-yl)phenyl)ethynyl)phenoxy)cyclohexane-1-carboxylic acid]",42.5
12,"C[C@H](O)c1nccn1Cc1cc(-c2ccc(C#Cc3ccc(C(=O)N4CC(O)C4)cc3)cc2)on1 [Example 68, (S)-(3-hydroxyazetidin-1-yl)(4-((4-(3-((2-(1-hydroxyethyl)-1 H-imidazol-1-yl)methyl)isoxazol-5-yl)phenyl)ethynyl)phenyl)methanone]",68.3
13,"C[C@H](O)c1nccn1Cc1cc(-c2ccc(C#Cc3ccc(CN4CC(C#N)C4)nc3)cc2)on1 [Example 119, (S)-1-((5-((4-(3-((2-(1-hydroxyethyl)-1H-imidazol-1-yl)methyl)isoxazol-5-yl)phenyl)ethynyl)pyridin-2-yl)methyl)azetidin-3-carbonitrile]",7.42
14,"C[C@H](O)c1nccn1Cc1cc(-c2ccc(C#Cc3ccc(CN4CC(CC#N)C4)nc3)cc2)on1 [Example 118, (S)-2-(1-((5-((4-(3-((2-(1-hydroxyethyl)-1H-imidazol-1-yl)methyl)isoxazol-5-yl)phenyl)ethynyl)pyridin-2-yl)methyl)azetidin-3-yl)acetonitrile]",16.5
15,"C[C@H](O)c1nccn1Cc1cc(-c2ccc(C#Cc3ccc(CN4CCOCC4)cc3)cn2)no1 [Example 104, (S)-1-(1-((3-(5-((4-(morpholino-methyl)phenyl)ethynyl)pyridin-2-yl)isoxazol-5-yl)methyl)-1H-imidazol-2-yl)ethan-1-ol]",58.6
16,"C[C@H](O)c1nccn1Cc1cc(-c2ccc(C#Cc3ccc(C#N)nc3)cc2)on1 [Example 120, (S)-5-((4-(3-((2-(1-hydroxyethyl)-1H-imidazol-1-yl)methyl)isoxazol-5-yl)phenyl)ethynyl)picolinonitrile]",77.1
17,"C[C@H](O)c1nccn1Cc1cc(-c2ccc(C#Cc3ccc(C(=O)NCCO)nc3)cc2)on1 [Example 105, (S)-N-(2-hydroxyethyl)-5-((4-(3-((2-(1-hydroxyethyl)-1H-imidazol-1-yl)methyl)isoxazol-5-yl)phenyl)ethynyl) picolinamide]",22.6
18,"C[C@H](O)c1nccn1Cc1cc(-c2ccc(C#Cc3ccc(CN4CC(CO)C4)nc3)cc2)on1 [Example 113, (S)-1-(1-((5-(4-((6-((3-(hydroxymethyl)azetidin-1-yl)methyl)pyridin-3-yl)ethynyl)phenyl)isoxazol-3-yl)methyl)-1H-imidazol-2-yl)ethan-1-ol]",24.6
19,"C[C@H](O)c1nccn1Cc1cc(-c2ccc(C#Cc3ccc(N4CCC(O)CC4)cc3)cc2)on1 [Example 41, (S)-1-(4-((4-(3-((2-(1-hydroxyethyl)-1H-imidazol-1-yl)methyl)isoxazol-5-yl)phenyl)ethynyl)phenyl)piperidin-4-ol]",26.3
20,"C[C@H](O)c1nccn1Cc1cc(-c2ccc(C#Cc3ccc(CN4CC(O)C4)nc3)cc2)on1 [Example 121, (S)-1-((5-((4-(3-((2-(1-hydroxyethyl)-1H-imidazol-1-yl)methyl)isoxazol-5-yl)phenyl)ethynyl)pyridin-2-yl)methyl)azetidin-3-ol]",22.3
21,"C[C@H](O)c1nccn1Cc1cc(-c2ccc(C#Cc3ccc(CN4CC(C(N)=O)C4)nc3)cc2)on1 [Example 123, (S)-1-((5-((4-(3-((2-(1-hydroxyethyl)-1H-imidazol-1-yl)methyl)isoxazol-5-yl)phenyl)ethynyl)pyridin-2-yl)methyl)azetidin-3-carboxamide]",8.22
22,"C[C@H](O)c1nccn1Cc1cc(-c2ccc(C#Cc3ccc(OCCN4CCOCC4)cc3)cc2)on1 [Example 80, (S)-1-(1-((5-(4-((4-(2-morpho-linoethoxy)phenyl)ethynyl)phenyl)isoxazol-3-yl)methyl)-1H-imidazol-2-yl)ethan-1-ol]",64.9
23,"C[C@H](O)c1nccn1Cc1cc(-c2ccc(C#Cc3ccc(CN4CC(CC(N)=O)C4)nc3)cc2)on1 [Example 122, (S)-2-(1-((5-((4-(3-((2-(1-hydroxyethyl)-1H-imidazol-1-yl)methyl)isoxazol-5-yl)phenyl)ethynyl)pyridin-2-yl)methyl)azetidin-3-yl)acetamide]",6.71
24,"C[C@H](O)c1nccn1Cc1cc(-c2ccc(C#Cc3ccc(C(C)(C)N4CCOCC4)cc3)cc2)on1 [Example 94, (S)-1-(1-((5-(4-((4-(2-morpho-linopropan-2-yl)phenyl)ethynyl)phenyl)isoxazol-3-yl)methyl)-1H-imidazol-2-yl)ethan-1-ol]",76.5
25,"C[C@H](O)c1nccn1Cc1cc(-c2ccc(C#Cc3ccc(C(=O)NCC(=O)O)cc3)cc2)on1 [Example 74, (S)-(4-((4-(3-((2-(1-hydroxy-ethyl)-1H-imidazol-1-yl)methyl)isoxazol-5-yl)phenyl)ethynyl)benzoyl)glycinate]",21.2
